{
  "source": "patent US11753409B2",
  "about": "“Crystalline salts of a B-RAF kinase inhibitor” (Xynomic Pharmaceuticals, Inc., priority 2017, dated 2023)",
  "key": {"[1]": {"test": "Pharmacokinetics following oral administration to rats", "format": "in vivo, HsdHan:WIST Norway rats", "conditions": "rat; for AUD: AUD range 0-6 h; for concentration at 24 h: mean n = 3, read-out: Blood Plasma Concentrations", "procedure": "The pharmacokinetics of N-(3-(5-((1-ethylpiperidin-4-yl)(methyl)amino)-3-(pyrimidin-5-yl)-1H-pyrrolo[3,2-b]pyridin-1-yl)-2,4-difluorophenyl)propane-1-sulfonamide hydrochloride salt and N-(3-(5-((1-ethylpiperidin-4-yl)(methyl)amino)-3-(pyrimidin-5-yl)-1H-pyrrolo[3,2-b]pyridin-1-yl)-2,4-difluorophenyl)propane-1-sulfonamide […] following oral administration at 40 mg and 80 mg (dose calculated as the free base) to HsdHan:WIST Norway rats. Each salt was administered to 3 animals."}, "[2]": {"test": "Intrinsic dissolution rate, rotating disc method", "format": "physicochemical", "conditions": "pH of medium 1.0 (0.1M HCl), 37° C."}, "[3]": {"test": "Sorption-desorption (DVS) of the salts with XRPD before and after", "format": "physicochemical", "procedure": "Dynamic Vapor Sorption (DVS) was performed in a IGAsorp Water Sorption Analyzer from Hiden Isochema. Adsorption and desorption isotherms were performed at 25° C. with 10% RH step intervals ranging from 0% relative humidity up to 90% relative humidity."}, "[4]": {"test": "Milling and compression stress followed by XRPD", "format": "physicochemical", "procedure": "FIG. 20 is a plot of the XRPD of N-(3-(5-((1-ethylpiperidin-4-yl)(methyl)amino)-3-(pyrimidin-5-yl)-1H-pyrrolo[3,2-b]pyridin-1-yl)-2,4-difluorophenyl)propane-1-sulfonamide monohydrochloride salt following milling in a swing mill for 10 min. at 30 rps.\nFIG. 21 is a plot of the XRPD of N-(3-(5-((1-ethylpiperidin-4-yl)(methyl)amino)-3-(pyrimidin-5-yl)-1H-pyrrolo[3,2-b]pyridin-1-yl)-2,4-difluorophenyl)propane-1-sulfonamide monohydrochloride salt following compression at 2000 N for 1 s to a tablet (diameter-5 mm).\nFIG. 31 is a plot of the XRPD of N-(3-(5-((1-ethylpiperidin-4-yl)(methyl)amino)-3-(pyrimidin-5-yl)-1H-pyrrolo[3,2-b]pyridin-1-yl)-2,4-difluorophenyl)propane-1-sulfonamide monosuccinate salt following milling in a swing mill for 10 min. at 30 rps.\nFIG. 32 is a plot of the XRPD of N-(3-(5-((1-ethylpiperidin-4-yl)(methyl)amino)-3-(pyrimidin-5-yl)-1H-pyrrolo[3,2-b]pyridin-1-yl)-2,4-difluorophenyl)propane-1-sulfonamide monosuccinate salt following compression at 2000 N for 1 s to a tablet (diameter-5 mm)."}, "[5]": {"test": "Intrinsic dissolution rate, rotating disc method", "format": "physicochemical", "procedure": "The intrinsic dissolution rate of 3-(5-((1-ethylpiperidin-4-yl)(methyl)amino)-3-(pyrimidin-5-yl)-1H-pyrrolo[3,2-b]pyridin-1-yl)-2,4-difluorophenyl)propane-1-sulfonamide salts was determined in aqueous media covering a range of pH 1.1-7.4 using the rotating disc method which maintains a constant surface area.\nThe drug substance (5 mg) was compressed at 356.1 Newtons for 60 s to form a disk. These disks were mounted to sample holders which fit into a miniaturized dissolution testing apparatus. The dissolution media were stirred at 200 rpm at a temperature of 37° C. Samples were automatically withdrawn every second minute from the dissolution vessel and assayed by UV spectrophotometry.\nThe intrinsic dissolution rate of N-(3-(5-((1-ethylpiperidin-4-yl)(methyl)amino)-3-(pyrimidin-5-yl)-TH-pyrrolo[3,2-b]pyridin-1-yl)-2,4-difluorophenyl)propane-1-sulfonamide monohydrochloride salt in various media was measured in media at various pH values.\nThe intrinsic dissolution rate of N-(3-(5-((1-ethylpiperidin-4-yl)(methyl)amino)-3-(pyrimidin-5-yl)-1H-pyrrolo[3,2-b]pyridin-1-yl)-2,4-difluorophenyl)propane-1-sulfonamide monosuccinate salt in various media was measured in media at various pH values."}, "[6]": {"test": "Equilibrium solubility in various aqueous media (solubility after 2 h)", "format": "physicochemical", "conditions": "thermodynamic from solid", "procedure": "Saturated solutions are prepared in well plates by adding an appropriate volume of selected aqueous media (typically in the range of 0.25-1.5 mL) into each well which contains a known quantity of solid drug substance (typically in the range 0.5-5.0 mg). The wells are shaken or stirred for a predefined time period (typically in a range of 2-24 h) and then filtered using appropriate filter membranes (typically PTFE-filters with 0.45 μm pore size). Filter absorption is avoided by discarding the first few drops of filtrate. The amount of dissolved drug substance is determined by UV spectroscopy. In addition, the pH of the aqueous saturated solution is measured using a glass-electrode pH meter.\nThe equilibrium solubility of N-(3-(5-((1-Ethylpiperidin-4-yl)(methyl)amino)-3-(pyrimidin-5-yl)-1H-pyrrolo[3,2-b]pyridin-1-yl)-2,4-difluorophenyl)propane-1-sulfonamide monohydrochloride salt in various media was determined.\nThe solubility of N-(3-(5-((1-Ethylpiperidin-4-yl)(methyl)amino)-3-(pyrimidin-5-yl)-1H-pyrrolo[3,2-b]pyridin-1-yl)-2,4-difluorophenyl)propane-1-sulfonamide monosuccinate salt in various media was determined."}, "[7]": {"conditions": "HsdHan:WIST, plasma, 40 mg/kg oral"}},
  "note": "Read-outs that look alike come from different tables or passages of the source.",
  "data": [
    {"smiles": "CCCS(=O)(=O)Nc1ccc(F)c(-n2cc(-c3cncnc3)c3nc(N(C)C4CCN(CC)CC4)ccc32)c1F.Cl", "note": "[Monohydrochloride Salt, N-(3-(5-((1-Ethylpiperidin-4-yl)(methyl)amino)-3-(pyrimidin-5-yl)-1H-pyrrolo[3,2-b]pyridin-1-yl)-2,4-difluorophenyl)propane-1-sulfonamide monohydrochloride salt]", "values": [
      {"measurement": "AUD", "setting": "[1]; 40 mg/kg oral", "value": 0.312, "unit": "µM·h"},
      {"measurement": "AUD", "setting": "[1]; 80 mg/kg oral", "value": 1.04, "unit": "µM·h"},
      {"measurement": "Cmax", "setting": "[1]; HsdHan:WIST, in vivo, 80 mg/kg oral", "value": 419, "unit": "nM"},
      {"measurement": "bioavailability", "setting": "[1]; HsdHan:WIST, plasma, po, 40 mg/kg dose", "value": 1, "unit": "%"},
      {"measurement": "Cmax", "setting": "[1]; [7]", "value": 123, "unit": "nM"},
      {"measurement": "Tmax", "setting": "[1]; [7]", "value": 3.3, "unit": "h"},
      {"measurement": "Tmax", "setting": "[1]; HsdHan:WIST, plasma, 80 mg/kg oral", "value": 4, "unit": "h"},
      {"measurement": "concentration at 24 h", "setting": "[1]; Time 0.5, 40 mg/kg oral", "value": 3.53, "unit": "nM"},
      {"measurement": "concentration at 24 h", "setting": "[1]; Time 1.0, 40 mg/kg oral", "value": 6.56, "unit": "nM"},
      {"measurement": "concentration at 24 h", "setting": "[1]; Time 1.0, 80 mg/kg oral", "value": 3.69, "unit": "nM"},
      {"measurement": "concentration at 24 h", "setting": "[1]; Time 2.0, 40 mg/kg oral", "value": 107, "unit": "nM"},
      {"measurement": "concentration at 24 h", "setting": "[1]; Time 2.0, 80 mg/kg oral", "value": 69.9, "unit": "nM"},
      {"measurement": "concentration at 24 h", "setting": "[1]; Time 4.0, 40 mg/kg oral", "value": 60.9, "unit": "nM"},
      {"measurement": "concentration at 24 h", "setting": "[1]; Time 4.0, 80 mg/kg oral", "value": 419, "unit": "nM"},
      {"measurement": "concentration at 24 h", "setting": "[1]; Time 6.0, 40 mg/kg oral", "value": 13.3, "unit": "nM"},
      {"measurement": "concentration at 24 h", "setting": "[1]; Time 6.0, 80 mg/kg oral", "value": 69, "unit": "nM"},
      {"measurement": "Intrinsic Dissolution Rate", "setting": "[2]", "value": 4, "unit": "μg/cm^2/min."},
      {"measurement": "Change in structure (XRPD) after sorption-desorption experiment", "setting": "[3]; XRPD before and after", "value": "no significant change in structure occurred"},
      {"measurement": "Reversible weight gain (isotherm sorption-desorption)", "setting": "[3]; range from 0-80% relative humidity", "value": "approximately 2.5%"},
      {"measurement": "Reversible weight gain (isotherm sorption-desorption)", "setting": "[3]; range from 0-90% relative humidity", "value": "approximately 400%"},
      {"measurement": "Weight gain (sorption-desorption)", "setting": "[3]; range from 10-90% relative humidity, scale-up sample", "value": "approximately 2.4%"},
      {"measurement": "Crystallinity and polymorphic form after compression (XRPD)", "setting": "[4]; 2000 N for 1 s to a tablet (diameter 5 mm)", "value": "slight decrease in crystallinity but no change in polymorphic form"},
      {"measurement": "Crystallinity and polymorphic form after milling (XRPD)", "setting": "[4]; swing mill for 10 min. at 30 rps", "value": "significant decrease in crystallinity but no change in polymorphic form"},
      {"measurement": "Intrinsic Dissolution Rate", "setting": "[5]; pH of medium 2.2, 37° C.", "value": 121, "unit": "μg/cm^2/min."},
      {"measurement": "Intrinsic Dissolution Rate", "setting": "[5]; pH of medium 3.0, 37° C.", "value": 80, "unit": "μg/cm^2/min."},
      {"measurement": "Intrinsic Dissolution Rate", "setting": "[5]; pH of medium 4.5, 37° C.", "value": 38, "unit": "μg/cm^2/min."},
      {"measurement": "Intrinsic Dissolution Rate", "setting": "[5]; pH of medium 6.8, 37° C.", "value": 15, "unit": "μg/cm^2/min."},
      {"measurement": "Intrinsic Dissolution Rate", "setting": "[5]; pH of medium 7.4, 37° C.", "value": 3, "unit": "μg/cm^2/min."},
      {"measurement": "solubility at 2 h", "setting": "[6]; 0.01 M HCl, simulated gastric fluid, HCl (0.01M)", "value": 20, "unit": "µg/mL"},
      {"measurement": "solubility at 2 h", "setting": "[6]; 0.1 M HCl, simulated gastric fluid, HCl (0.1M)", "value": 60, "unit": "µg/mL"},
      {"measurement": "solubility at 2 h", "setting": "[6]; aqueous buffer, 0.1M Citric acid", "value": 400, "unit": "µg/mL"},
      {"measurement": "solubility at 2 h", "setting": "[6]; aqueous buffer, 0.1M NaOH", "value": "> 10000", "unit": "µg/mL"},
      {"measurement": "solubility at 2 h", "setting": "[6]; aqueous buffer, Acetate Buffer (pH 5.0)", "value": 200, "unit": "µg/mL"},
      {"measurement": "solubility at 2 h", "setting": "[6]; aqueous buffer, McIlvaine Buffer (pH 2.2)", "value": 400, "unit": "µg/mL"},
      {"measurement": "solubility at 2 h", "setting": "[6]; aqueous buffer, McIlvaine Buffer (pH 3.0)", "value": 200, "unit": "µg/mL"},
      {"measurement": "solubility at 2 h", "setting": "[6]; aqueous buffer, McIlvaine Buffer (pH 4.0)", "value": 100, "unit": "µg/mL"},
      {"measurement": "solubility at 2 h", "setting": "[6]; aqueous buffer, McIlvaine Buffer (pH 4.5)", "value": 200, "unit": "µg/mL"},
      {"measurement": "solubility at 2 h", "setting": "[6]; aqueous buffer, McIlvaine Buffer (pH 5.0)", "value": 200, "unit": "µg/mL"},
      {"measurement": "solubility at 2 h", "setting": "[6]; aqueous buffer, McIlvaine Buffer (pH 6.0)", "value": 100, "unit": "µg/mL"},
      {"measurement": "solubility at 2 h", "setting": "[6]; aqueous buffer, McIlvaine Buffer (pH 6.8)", "value": 100, "unit": "µg/mL"},
      {"measurement": "solubility at 2 h", "setting": "[6]; aqueous buffer, McIlvaine Buffer (pH 7.4)", "value": 10, "unit": "µg/mL"},
      {"measurement": "solubility at 2 h", "setting": "[6]; aqueous buffer, Phosphate Buffer (pH 6.8)", "value": 200, "unit": "µg/mL"},
      {"measurement": "solubility at 2 h", "setting": "[6]; aqueous buffer, Sorensen Buffer (pH 9.0)", "value": 10, "unit": "µg/mL"},
      {"measurement": "solubility at 2 h", "setting": "[6]; aqueous buffer, Sorensen Buffer (pH 11)", "value": 700, "unit": "µg/mL"},
      {"measurement": "solubility at 2 h", "setting": "[6]; Simulated intestinal fluid (FaSSIF)", "value": 2, "unit": "µg/mL"},
      {"measurement": "solubility at 2 h", "setting": "[6]; Simulated intestinal fluid (FeSSIF)", "value": 30, "unit": "µg/mL"},
      {"measurement": "solubility at 2 h", "setting": "[6]; water", "value": 100, "unit": "µg/mL"}
    ]}
  ]
}
